Laboratory results taken from patent US20060292186A1, “Self-nanoemulsifying oily formulation for the administration of poorly water-soluble drugs” (Novagali Pharma SA, priority 2003, published 2006).

Experiments:
[1] = Dose versus plasma AUC pharmacokinetic study of paclitaxel SNEOF after cyclosporin A oral pre-treatment in wild type mice; assay type: in vivo, FVB Wild type Mice; details: 10-60 mg/kg p.o., CsA constant at 10 mg/kg
Method: Each cohort consisted of 20 mice. At the specified times, animals were anaesthetized using metofane. After fixation on their back, with their chest in an upright position blood was collected by cardiac puncture using a 1 mL polypropylene syringe fitted with 25 g needle. Blood was transferred immediately into tubes containing potassium EDTA as anticoagulant and mixed by inversion. Blood samples were centrifuged vial for 5 min at 4000 g. The supernatant plasma fraction was transferred to a clean tube with appropriate label and stored at -20° C. until analyses. […] Plasma samples for subsequent analysis were obtained from all animals. […] Plasma concentration data were reported. Plasma concentrations versus time curves were fitted using the […] software package (version 3.0) and pharmacokinetic parameters: […]

[2] = humans, without enhancer; cited from earlier work

CC(=O)O[C@H]1C(=O)[C@@]2(C)[C@H]([C@H](OC(=O)c3ccccc3)[C@]3(O)C[C@H](OC(=O)[C@H](O)[C@@H](NC(=O)c4ccccc4)c4ccccc4)C(C)=C1C3(C)C)[C@]1(OC(C)=O)CO[C@@H]1C[C@@H]2O [paclitaxel, Paclitaxel]
linearity of oral bioavailability with dose [1]: not linear but decreased significantly with dose | systemic bioavailability after oral paclitaxel administration [2]: less than 6%
